Experiments:
NZB/W F1 mice [1] = experiment: CLA diet given after onset of proteinuria in NZB/W F1 mice (SLE model): survival and body weight; format: in vivo; conditions: p<0.05
Description: Materials. Conjugated linoleic acid (Natural Lipids Inc, Hovdebygda, Norway) contained 90% CLA (CLA-90) with the following C18:2 isomer distribution: 43.5% t10,c12, 41.9% c9,t11 and t9,c11, 1.5% t9,t11 and t10,t12, 0.9% c9,c11, 0.9% c10,c12. Other fatty acids in CLA-90 were 5.6% oleate, 1.4% palmitate, 0.5% linoleate, 0.4% stearate, and 3.4% unidentified compounds. All other chemicals and reagents were purchased from Sigma Chemical Co. (St. Louis, Mo.) unless specified.
Diet. Semi-purified powdered diet (TD94060, 99% basal mix, Harlan-Teklad, Madison, Wis.) was mixed with 0.5% oil (either CLA or corn oil) and 0.5% sucrose by weight, such that the final diet contained either 5.5% corn oil (control group) or 5% corn oil plus 0.5% CLA (CLA group) (Park Y et al., Lipids 32, 853 (1997)). […]
Animals. […] Once proteinuria was detected the mice were assigned either the control diet or 0.5% conjugated linoleic acid for the remainder of their life. […]
Feed Intake and Body Weight. Weekly body weight and survival of the mice were recorded from the beginning of the experiment to the time of death.
Urine Collection and Proteinuria Assay. […] Plates were mildly shaken for 5 min and the color reactions were read at 600 nm with a microtiter plate reader (Autoreader EL310, Bio-tek Instrument). […]
Statistical Analysis. […] Positive proteinuria ratio was analyzed by Fisher's exact test using a SAS computer program version 5.

[2] = tested on: SLE patients and rodent models; experiment: Comparison of CLA with n-3 fatty acids in SLE patients and rodent models; format: in vivo; conditions: CLA vs n-3 fatty acids
Description: Effects similar to those observed by the applicants can be observed using n-3 fatty acids in SLE patients and rodent models (Fernandes, G., et al., J. Immunol. 152:5979 (1994)). […] To have similar effects of 0.5% diet CLA, as described below, n-3 fatty acids would have to make up about 10% of the diet.

NZB/W F1 mice [3] = conditions: dietary CLA fed from weaning onward; cited from earlier work

Substance: Conjugated linoleic acid [CLA]
- prolonging of life span (lived longer than control diet) (NZB/W F1 mice [1]; 0.5% CLA in diet from detection of proteinuria (1 mg protein/ml urine) until death, vs 5.5% corn oil control diet, female NZB/W F1 mice): 55%
- reduction of body weight wasting (control lost more body weight than CLA diet) (NZB/W F1 mice [1]; 0.5% CLA in diet from detection of proteinuria until death, vs control diet, NZB/W F1 mice): 35%
- effectiveness relative to n-3 fatty acids in comparable methods [2]: about 20 times
- anti-DNA antibody production (NZB/W F1 mice [3]): does not significantly affect
- body weight loss vs control mice (NZB/W F1 mice [3]): lost less body weight
- onset of proteinuria (NZB/W F1 mice [3]): accelerates the onset of proteinuria
- survival from the onset of proteinuria vs control mice (NZB/W F1 mice [3]): lived longer
- total lifespan vs control animals (NZB/W F1 mice [3]): did not differ
